From patent publication US9944690B2, “Methods for controlling T cell proliferation” (BELLICUM PHARMACEUTICALS, INC., priority 2013, dated 2018)
Entries after “also recorded” stand apart in the source; their conditions may differ. Read-outs that look alike come from different tables or passages of the source.

Legend:
CAPAN-1-GFP tumor cells = experiment: Co-culture of iMC-enabled T cells with CAPAN-1 tumor cells; format: cell-based, human; details: RV-172 T cells : CAPAN-1-GFP 5:1, 10 nM AP1903, 72 hours
[1] = system: T cells transduced with the retrovirus containing iMC (RV-172); experiment: AP1903-induced T cell activation by cytokine production (Bio-Plex 27-plex); format: cell-based, human; details: iMC (RV-172) T cells, 10 nM AP1903, 24 hours, supernatant
Protocol: 5. To assess AP1903-dependent T cell activation of T cells, 1×10^5 non-transduced (NT) or T cells transduced with the control retrovirus (RV-171) or the retrovirus containing iMC(RV-172) were plated in triplicate in 96-well plates and cultured at 37° C. 5% CO2 with media alone, or media containing 10 nM AP1903.
6. After 24 hours, the cells were gently mixed and the plate was centrifuged. Supernatant was then collected and plated into a Bio-Plex Human Cytokine/Chemokine 27-plex plate, which measures the following cytokines and chemokines: • a. Basic-FGF, G-CSF, GM-CSF, IFN-gamma, IL-1Ra, IL-1beta, IL-2, IL-4, IL-5, IL-6, […], IL-7, […], IL-9, IL-10, IL-12p70, IL-13, IL-15, IL-17RA, eotaxin, IP10, MCP-1, MIP-1alpha, MIP-1beta, PDGF-bb, RANTES, TNF-alpha and VEGF. • b. The cytokines and chemokines in the supernatants were subsequently measured and compared to standards in the plate using a Bio-Plex MAGPIX Multiplex Reader.
T cells were stimulated with 10 nM AP1903 for 24 hours then supernatants were assayed for cytokine levels.

cells = experiment: Amount of AP1903 needed in vitro for effective signaling of cells; format: cell-based
Protocol: The amount of AP1903 needed in vitro for effective signaling of cells is about 10-100 nM (MW: 1412 Da). This equates to 14-140 μg/L or ˜0.014-0.14 mg/kg (1.4-140 μg/kg). The dosage may vary according to the application, and may, in certain examples, be more in the range of 0.1-10 nM, or in the range of 50-150 nM, 10-200 nM, 75-125 nM, 100-500 nM, 100-600 nM, 100-700 nM, 100-800 nM, or 100-900 nM. Doses up to 1 mg/kg were well-tolerated in the Phase I study of AP1903 described above.

[2] = cited from earlier work
[3] = system: T cells transduced with RV-172; experiment: T cell proliferation in co-culture wells on AP1903 stimulation; details: RV-172 T cells with 10 nM AP1903, co-culture 72 hours, both donors
Protocol: Non-transduced T cells or cells transduced with RV-171 (control vector) or RV-172 (iMC vector) were cultured at a 5:1 ratio of T cells to tumor cells in media supplemented with 50 U/ml IL-2, and either with or without 10 nM AP1903. Co-cultures were then incubated at 37° C. and 5% CO2 for 72 hours. Cultures were subsequently analyzed for the presence of GFP tumor cells by fluorescent microscopy and by harvesting the cultures with 0.25% trypsin/EDTA and measuring the frequency of GFP^+CD3^− tumor cells in the culture by flow cytometry.
Following these initial observations, T cells and tumor cells were harvested and analyzed by flow cytometry to determine the frequency of remaining CAPAN-1 GFP^+ tumor cells.

CC[C@H](C(=O)N1CCCC[C@H]1C(=O)O[C@H](CCc1ccc(OC)c(OC)c1)c1cccc(OCC(=O)NCCNC(=O)COc2cccc([C@@H](CCc3ccc(OC)c(OC)c3)OC(=O)[C@@H]3CCCCN3C(=O)[C@@H](CC)c3cc(OC)c(OC)c(OC)c3)c2)c1)c1cc(OC)c(OC)c(OC)c1 (relative stereo) [AP1903, 2-Piperidinecarboxylic acid, 1-[(2S)-1-oxo-2-(3,4,5-trimethoxyphenyl)butyl]-, 1,2-ethanediylbis[imino(2-oxo-2,1-ethanediyl)oxy-3,1-phenylene[(1R)-3-(3,4-dimethoxyphenyl)propylidene]]ester, [2S-[1(R*),2R*[S*[S*[1(R*),2R*]]]]]-(9Cl)]
GFP+ tumor cells by flow cytometry (CAPAN-1-GFP tumor cells): reduction of GFP^+ tumor cells; also recorded: induces T cell killing of tumor cells
GFP+ tumor cells by fluorescent microscopy (CAPAN-1-GFP tumor cells): very few viable GFP^+ tumor cells; also recorded: elimination of GFP^+ tumor cells
Basic-FGF secretion [1]: did not appear to be induced
G-CSF secretion [1]: did not appear to be induced
GM-CSF secretion [1]: showed induction
IFN-gamma secretion [1]: showed induction
IL-1Ra secretion [1]: did not appear to be induced
IL-1beta secretion [1]: showed induction
IL-2 secretion [1]: did not appear to be induced
IL-4 secretion [1]: showed induction
IL-5 secretion [1]: showed induction
IL-6 secretion [1]: showed induction
IL-7 secretion [1]: did not appear to be induced
IL-8 secretion [1]: showed induction
IL-9 secretion [1]: did not appear to be induced
IL-10 secretion [1]: did not appear to be induced
IL-12p70 secretion [1]: showed induction
IL-13 secretion [1]: showed induction
IL-15 secretion [1]: did not appear to be induced
IL-17RA secretion [1]: did not appear to be induced
IP10 secretion [1]: showed induction
MCP-1 secretion [1]: did not appear to be induced
MIP-1alpha secretion [1]: showed induction
MIP-1beta secretion [1]: showed induction
PDGF-bb secretion [1]: did not appear to be induced
RANTES secretion [1]: showed induction
TNF-alpha secretion [1]: showed induction
VEGF secretion [1]: did not appear to be induced
eotaxin secretion [1]: did not appear to be induced
amount needed for effective signaling, as dose (cells; converted from 14-140 μg/L): 14 to 140 µg/kg
amount needed for effective signaling, as mass concentration (cells; converted with MW 1412 Da): 14 to 140 µg/L
amount needed for effective signaling, as dose (cells; figure in brackets after the mg/kg range): 1.4 to 140 µg/kg
amount needed in vitro for effective signaling of cells (cells; in vitro): 10 to 100 nM
relation of AP1903 plasma levels to dose ([2]; 0.01, 0.05, 0.1, 0.5 and 1.0 mg/kg IV over 2 hours): directly proportional to dose
plasma level as % of maximal concentration ([2]; 0.5 hours post-dose): approximately 18%
plasma level as % of maximal concentration ([2]; 2 hours post-dose): ~7%
plasma level as % of maximal concentration ([2]; 10 hours post-dose): ~1%
well-tolerated doses ([2]; Phase I study): up to 1 mg/kg
mean Cmax ([2]; plasma, single doses over the 0.01-1.0 mg/kg dose range infused IV over 2 hours, 24 healthy volunteers): 10 to 1275 ng/mL
T cell proliferation / T cell blast activation (inspection, microscopy) [3]: proliferating; also recorded: activation of T cell blasts
